Source: US10206906B2, “Synergistic combination of a phenolic-rich maple syrup extract and an antibiotic” (priority 2015, dated 2019)
In brackets after ≈: the same amount, converted by molar mass.

Key:
[1] = system: proton motive force-driven multidrug efflux pump of E. coli CFT073; experiment: Ethidium bromide (EtBr) efflux assay; format: cell-based, Escherichia coli; conditions: PRMSE, catechol at 0.25 times the MIC; CCCP 100 μM; untreated cells 36.9
Experimental: (§1) An overnight grown culture of each strain is diluted 1:100 using MHB-II broth to a final volume of 10 mL and grown to an OD600 of 0.8-1.0 (at 37° C., 150 rpm). […] The tubes are incubated for 1 h (37° C., 150 rpm). The inoculum is then adjusted to 0.4 OD600 with MHB-II broth containing 5 μM EtBr and 2 mL aliquots of this mixture are pelleted (5000×g, 10 min at 4° C.). The pellets are incubated on ice immediately, resuspended in 1 mL of MHB-II, and aliquoted (200 μL) into a polystyrene 96 well black, clear-bottom plate (Corning™, Fisher Scientific, ON, Canada). EtBr efflux from the cells is monitored at room temperature using the microplate reader (ex/em 530/600 nm). Readings are taken at 5 min intervals for 1 h to monitor efflux pump activity. The background fluorescence of the medium is subtracted from all measurements and the assay is repeated independently in triplicate.

[2] = system: proton motive force-driven multidrug efflux pump of P. aeruginosa PAO1; experiment: Ethidium bromide (EtBr) efflux assay; format: cell-based, Pseudomonas aeruginosa; conditions: PRMSE, catechol at 0.25 times the MIC; CCCP 100 μM; untreated cells 37.6
Experimental: as §1

[3] = system: proton motive force-driven multidrug efflux pump of P. aeruginosa PA14; experiment: Ethidium bromide (EtBr) efflux assay; format: cell-based, Pseudomonas aeruginosa; conditions: PRMSE, catechol at 0.25 times the MIC; CCCP 100 μM; untreated cells 30.9
Experimental: as §1

[4] = system: proton motive force-driven multidrug efflux pump of P. mirabilis HI4320; experiment: Ethidium bromide (EtBr) efflux assay; format: cell-based, Proteus mirabilis; conditions: PRMSE, catechol at 0.25 times the MIC; CCCP 100 μM; untreated cells 35.9
Experimental: as §1

[5] = system: P. mirabilis HI4320; experiment: Checkerboard microdilution assay (growth inhibition synergy); format: cell-based, Proteus mirabilis; conditions: for FIC of ciprofloxacin: ciprofloxacin in combination with the labelled phenolic constituent; for FICI: labelled phenolic constituent + ciprofloxacin, * = synergistic interaction; for FIC of compound: labelled phenolic constituent in combination with ciprofloxacin
Experimental: (§2) The checkerboard microdilution assay is used for evaluation of in vitro antimicrobial synergy between two compounds (i.e., antibiotic/PRMSE, antibiotic/pure phenolic compound, and pure phenolic compounds with each other). Two-fold serial dilutions are prepared in MHB-II for each of the two compounds under study. The serial dilutions are then loaded into 96 well plates to achieve combinations having different concentrations of each of the two compounds. Each well is subsequently inoculated with 10^6 CFU mL^−1 of the desired bacterial strain and incubated at 37° C. for 18 h under static conditions. The Fractional Inhibitory Concentration Index (FICI) for each combination is calculated by using the following formula: FICcomponent 1=MICcomponent 1, in combination/MICcomponent 1,alone FICI=FICcomponent 1+FICcomponent 2
(§3) The FICIs are interpreted as follows: FICI of […] (synergy); 0.5<FICI ≤1 (no interaction/indifference); FICI of >4 (antagonism).

[6] = system: P. aeruginosa PAO1; experiment: Determination of minimum inhibitory concentration (MIC); format: cell-based; conditions: Pseudomonas aeruginosa, PAO1, 18 h; read-out: MIC
Experimental: (§4) A range of concentration of antibiotics, ciprofloxacin (0.0003-0.25 μg mL^−1) and carbenicillin (0.5-512 μg mL^−1), are chosen due to their known potency against all four bacterial strains. Dilutions are prepared in flat bottom, 96 well microtitre plates (Falcon™, Corning™, Fisher Scientific, ON, Canada). Each well of a microtitre plate is then inoculated with the desired bacterial strain (grown in MHB-II and diluted to […]) and the plate is incubated at 37° C. for 18 h under static conditions. Bacterial growth is assessed by (i) monitoring the optical density of the cell suspension in each well at 600 nm (OD600 nm), and (ii) the resazurin microtitre plate assay. In the resazurin microtitre plate assay, each well of a microtitre plate is supplemented with 20 μM resazurin, incubated in the dark for 20 min at room temperature, followed by fluorescence measurements at ex/em 570/590 nm using a TECAN Infinite M200 Pro microplate reader (Tecan Group Ltd., Switzerland). The lowest concentration of a compound able to prevent increase in OD600 nm and resazurin fluorescence intensity is recorded as the MIC for that compound.

[7] = system: E. coli CFT073; experiment: as above; format: cell-based; conditions: Escherichia coli, CFT073, 18 h; read-out: MIC
Experimental: as §4

[8] = system: P. mirabilis HI4320; experiment: as above; format: cell-based; conditions: Proteus mirabilis, HI4320, 18 h; read-out: MIC
Experimental: as §4

[9] = system: P. aeruginosa PA14; experiment: as above; format: cell-based; conditions: Pseudomonas aeruginosa, PA14, 18 h; read-out: MIC
Experimental: as §4

[10] = system: E. coli CFT073; experiment: Checkerboard microdilution assay (growth inhibition synergy); format: cell-based, Escherichia coli; conditions: for FIC of ciprofloxacin: ciprofloxacin in combination with the labelled phenolic constituent; for FICI: labelled phenolic constituent + ciprofloxacin, * = synergistic interaction; for FIC of compound: labelled phenolic constituent in combination with ciprofloxacin
Experimental: as §2, §3

[11] = system: P. aeruginosa PAO1; experiment: as above; format: cell-based, Pseudomonas aeruginosa; conditions: for FIC of ciprofloxacin: ciprofloxacin in combination with the labelled phenolic constituent; for FICI: labelled phenolic constituent + ciprofloxacin, * = synergistic interaction; for FIC of compound: labelled phenolic constituent in combination with ciprofloxacin
Experimental: as §2, §3

[12] = system: P. aeruginosa PA14; experiment: as above; format: cell-based, Pseudomonas aeruginosa; conditions: for FIC of ciprofloxacin: ciprofloxacin in combination with the labelled phenolic constituent; for FICI: labelled phenolic constituent + ciprofloxacin, * = synergistic interaction; for FIC of compound: labelled phenolic constituent in combination with ciprofloxacin
Experimental: as §2, §3

[13] = labelled constituent + catechol, * = synergistic
[14] = labelled constituent + gallic acid, * = synergistic
[15] = labelled constituent combined with catechol
[16] = labelled constituent combined with gallic acid

MIC [6] [µg/mL]	MIC [7] [µg/mL]	MIC [8] [µg/mL]	MIC [9] [µg/mL]	SMILES	FIC of ciprofloxacin [5]	FICI [5]	FIC of compound [5]	FIC of ciprofloxacin [10]	FICI [10]	FIC of compound [10]	FIC of ciprofloxacin [11]	FICI [11]	FIC of compound [11]	FIC of ciprofloxacin [12]	FICI [12]	FIC of compound [12]	further results
–	–	–	–	N#CC(C#N)=NNc1cccc(Cl)c1 [CCCP, carbonyl cyanide m-chlorophenylhydrazone, reference compound]	–	–	–	–	–	–	–	–	–	–	–	–	Efflux pump activity [1]: 15.8%; % EtBr efflux [2]: 19.3%; Efflux pump activity [3]: 17%; Efflux pump activity [4]: 14.5%
5000 (≈ 29.4 mM)	5000 (≈ 29.4 mM)	5000 (≈ 29.4 mM)	5000 (≈ 29.4 mM)	O=C(O)c1cc(O)c(O)c(O)c1 [gallic acid]	1	2	1	1	2	1	1	2	1	1	2	1	–
1250 (≈ 9.05 mM)	1250 (≈ 9.05 mM)	1250 (≈ 9.05 mM)	1250 (≈ 9.05 mM)	O=Cc1ccc(O)c(O)c1 [catechaldehyde, 3,4-dihydroxybenzaldehyde]	0.5	1.5	1	1	2	1	0.5	1.01	0.51	1	2	1	FICI, catechol [5, 13]: 0.5*; FICI, gallic acid [5, 14]: 0.37*; FIC, catechol [5, 15]: 0.25; FIC, gallic acid [5, 16]: 0.13; FICI, catechol [10, 13]: 0.5*; FICI, gallic acid [10, 14]: 0.5*; FIC, catechol [10, 15]: 0.25; FIC, gallic acid [10, 16]: 0.25; FICI, catechol [11, 13]: 0.37*; FICI, gallic acid [11, 14]: 0.37*; FIC, catechol [11, 15]: 0.25; FIC, gallic acid [11, 16]: 0.13; FICI, catechol [12, 13]: 0.5*; FICI, gallic acid [12, 14]: 0.5*; FIC, catechol [12, 15]: 0.25; FIC, gallic acid [12, 16]: 0.25
